# In PMC5234788 (PLoS ONE, 2017):
# “And” between values parts separate entries of the source, which are not always exact repeats. Identical values can stand only once.
# Assays:
# Serotonin Transporter = tested on: T1, Serotonin Transporter; assay: Radio-ligand binding assay, Serotonin Transporter; conditions: 10 μM l-THBr; radioligand [3H]Citalopram,N-Methyl
# T1 construct: Caliper Lifescience
# Description: (§1) To determine the possible targets of l-THBr action, the binding affinities of l-THBr to neurotransmitter receptors known to be involved in sedation, hypnosis and anxiety were investigated. Radio-ligand binding assays were performed by Caliper Lifescience (Hopkinton, MA, USA). The screening was carried out at a concentration of 10 μM l–THBr to test its ability to inhibit the binding of radioligands to their corresponding receptors. The results were expressed as percentage of inhibition of labeled ligand binding to individual receptors. Significant binding activity was defined as ≥50%.
# [1] = tested on: Glutamate, AMPA Site (Ionotropic); assay: Radio-ligand binding assay, Glutamate AMPA site; conditions: 10 μM l-THBr; radioligand [3H]AMPA
# Description: as §1
# Serotonin, 5HT7 (h) = tested on: T2, Serotonin, 5HT7 (h); assay: Radio-ligand binding assay, Serotonin 5HT7; design: species or system human; conditions: 10 μM l-THBr
# T2 construct: Caliper Lifescience
# Description: as §1
# Serotonin, 5HT5A (h) = tested on: T3, Serotonin, 5HT5A (h); assay: Radio-ligand binding assay, Serotonin 5HT5A; design: species or system human; conditions: 10 μM l-THBr; radioligand [3H]-LSD
# T3 construct: Caliper Lifescience
# Description: as §1
# [2] = tested on: T4, Glutamate, NMDA, Glycine (stry-insens Site (Ionotropic)); assay: Radio-ligand binding assay, Glutamate NMDA glycine site; conditions: 10 μM l-THBr; radioligand [3H]-MDL-105,519
# T4 construct: Caliper Lifescience
# Description: as §1
# male CD-1 ICR mice = assay: Locomotor activity test; assay type: in vivo; conditions: l-THBr 1, 5, or 10 mg/kg, i.p., 60 min
# Text: The spontaneous activity video analysis system consists of 8 sound-attenuated chambers (40 cm × 40 cm × 65 cm) with a built-in infrared camera. (JL Behave, Shanghai Ji-Liang Software Technology Co., Ltd). During the behavioral tests, the experimenter was outside the testing room, and the chambers were cleaned between successive runs. Forty male CD-1 ICR mice were allowed to acclimate for three days in home cages and were handled for another three days to minimize stress after arrival in the animal facility. On the following day, after habituation to the activity chambers for 60 min, mice were administered vehicle, diazepam (DZP, 2 mg/kg, i.p.) or l–THBr (1, 5, or 10 mg/kg, i.p.) and immediately placed into the test chambers to record their locomotor activity for 60 min.
# [3] = target: T5, human D2 dopamine receptor (Homo sapiens, UniProt P14416); assay: biochemical; assay type: biochemical
# T5 construct: host or cells: HEK293
# Text: D2-D4 dopamine receptors and 5-HT1A serotonin receptors are Gαi-coupled receptors that mediate inhibitory neurotransmission. We conducted [^35S]GTPγS assays to determine the agonist or antagonist properties of l-THBr at D2 dopamine receptors or 5-HT1A serotonin receptors. HEK293 cells stably expressing D2 receptors were provided by the Beijing Institute of Pharmacology and Toxicology (Beijing, China). The membrane preparation of D2-expressing HEK293 cells and rat hippocampal tissues highly expressing 5-HT1A receptors were prepared as previously described. Briefly, 10 SD rats were anesthetized and decapitated, and the hippocampi were quickly dissected and stored at -80°C until use. D2 receptor-expressing HEK293 cells and the hippocampal tissue were each homogenized at 4°C in 50 mM Tris-HCl buffer (pH 7.4). The homogenates were centrifuged at 2500 × g for 6 min, and the supernatant was further centrifuged for 20 min at 40000 × g. Membranes were re-suspended in Tris-HCl buffer and stored at -80°C until use.
# [^35S]GTPγS assays were performed in a total volume of 0.5 ml at 4°C. […] Bound radioactivity was determined by liquid scintillation counting. Drug effects were expressed as drug-induced increase in binding over basal binding (binding in the absence of drugs). […] The inhibitory effect of l–THBr was determined by a similar equation to obtain the IC50 values.
# Serotonin, 5HT1D = tested on: T6, Serotonin, 5HT1D; assay: Radio-ligand binding assay, Serotonin 5HT1D; conditions: 10 μM l-THBr; radioligand [3H]5-CT
# T6 construct: Caliper Lifescience
# Description: as §1
# Dopamine, D1 (h) = tested on: T7, Dopamine, D1 (h); assay: Radio-ligand binding assay, Dopamine D1; design: species or system human; conditions: 10 μM l-THBr
# T7 construct: Caliper Lifescience
# Description: as §1
# [4] = tested on: Glutamate, NMDA Agonist Site (Ionotropic); assay: Radio-ligand binding assay, Glutamate NMDA agonist site; conditions: 10 μM l-THBr; radioligand [3H]CGP 39653
# Description: as §1
# Serotonin, 5HT2A = tested on: T8, Serotonin, 5HT2A; assay: Radio-ligand binding assay, Serotonin 5HT2A; conditions: 10 μM l-THBr; radioligand [3H]Ketanserin
# T8 construct: Caliper Lifescience
# Description: as §1
# [5] = tested on: Glutamate, MK-801 (Ionotropic); assay: Radio-ligand binding assay, Glutamate MK-801; conditions: 10 μM l-THBr; radioligand [3H] MK-801
# Description: as §1
# Dopamine Transporter = tested on: T9, Dopamine Transporter; assay: Radio-ligand binding assay, Dopamine Transporter; conditions: 10 μM l-THBr; radioligand [3H]WIN 35,428
# T9 construct: Caliper Lifescience
# Description: as §1
# Serotonin, 5HT2C = tested on: T10, Serotonin, 5HT2C; assay: Radio-ligand binding assay, Serotonin 5HT2C; conditions: 10 μM l-THBr; radioligand [3H]Mesulergine
# T10 construct: Caliper Lifescience
# Description: as §1
# GABA A, Agonist Site = assay: Radio-ligand binding assay, GABA A agonist site; conditions: 10 μM l-THBr; radioligand [3H]GABA
# Description: as §1
# Dopamine, D2s (h) = tested on: T11, Dopamine, D2s (h); assay: Radio-ligand binding assay, Dopamine D2s; design: species or system human; conditions: 10 μM l-THBr
# T11 construct: Caliper Lifescience
# Description: as §1
# Dopamine, D4.4 (h) = tested on: T12, Dopamine, D4.4 (h); assay: Radio-ligand binding assay, Dopamine D4.4; design: species or system human; conditions: 10 μM l-THBr
# T12 construct: Caliper Lifescience
# Description: as §1
# Serotonin, 5HT1A (h) = tested on: T13, Serotonin, 5HT1A (h); assay: Radio-ligand binding assay, Serotonin 5HT1A; design: species or system human; conditions: 10 μM l-THBr
# T13 construct: Caliper Lifescience
# Description: as §1
# [6] = tested on: Glycline, Strychnine-sensitive; assay: Radio-ligand binding assay, Glycine strychnine-sensitive; conditions: 10 μM l-THBr; radioligand [3H]Strchnine
# Description: as §1
# T5 sequence (P14416 whole entry): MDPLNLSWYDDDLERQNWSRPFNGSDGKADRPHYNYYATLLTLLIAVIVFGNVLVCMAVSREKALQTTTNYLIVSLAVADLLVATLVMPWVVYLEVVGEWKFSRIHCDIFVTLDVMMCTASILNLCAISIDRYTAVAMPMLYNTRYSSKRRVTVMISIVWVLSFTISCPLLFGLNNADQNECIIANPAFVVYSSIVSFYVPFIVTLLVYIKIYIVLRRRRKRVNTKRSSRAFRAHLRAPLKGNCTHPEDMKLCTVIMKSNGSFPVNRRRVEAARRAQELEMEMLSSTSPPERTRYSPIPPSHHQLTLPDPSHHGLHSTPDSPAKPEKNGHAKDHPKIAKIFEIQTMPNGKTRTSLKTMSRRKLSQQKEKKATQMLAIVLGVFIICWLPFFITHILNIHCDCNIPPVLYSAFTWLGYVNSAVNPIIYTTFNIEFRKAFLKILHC
smiles,measurement,setting,value
"COc1ccc2c(c1O)CN1CCc3cc4c(cc3[C@@H]1C2)OCO4 [l-THBr, levo-tetrahydroberberrubine]",Average inhibition percentage,Serotonin Transporter,34.43%
same,Average inhibition percentage,[1],0.31%
same,Activity,"Serotonin, 5HT7 (h)",Yes (Significant binding affinity of l-THBr was defined as greater than 50% inhibition of ligand binding)
same,Average inhibition percentage,"Serotonin, 5HT7 (h); radioligand [3H]LSD",54.82%
same,Average inhibition percentage,"Serotonin, 5HT5A (h)",23.79%
same,Average inhibition percentage,[2],1.79%
same,influence on locomotor activity (travel distance),male CD-1 ICR mice,no influence
same,IC50,[3],5.26 nM
same,dose-dependent increase in [35S]GTPγS binding (agonist effect),[3],but not l-THBr induced a dose-dependent increase
same,Average inhibition percentage,"Serotonin, 5HT1D",42.28%
same,Activity,"Dopamine, D1 (h)",Yes (Significant binding affinity of l-THBr was defined as greater than 50% inhibition of ligand binding)
same,Average inhibition percentage,"Dopamine, D1 (h); radioligand [3H]-SCH23390",100.6% and 100.61%
same,Average inhibition percentage,[4],4.79%
same,Average inhibition percentage,"Serotonin, 5HT2A",40.90%
same,Average inhibition percentage,[5],6.41%
same,Average inhibition percentage,Dopamine Transporter,8.8%
same,Average inhibition percentage,"Serotonin, 5HT2C",30.65%
same,Average inhibition percentage,"GABA A, Agonist Site",7.89%
same,Activity,"Dopamine, D2s (h)",Yes (Significant binding affinity of l-THBr was defined as greater than 50% inhibition of ligand binding)
same,Average inhibition percentage,"Dopamine, D2s (h); radioligand [3H]-Raclopride",98.41% and 96.43%
same,Activity,"Dopamine, D4.4 (h)",Yes (Significant binding affinity of l-THBr was defined as greater than 50% inhibition of ligand binding)
same,Average inhibition percentage,"Dopamine, D4.4 (h); radioligand [3H]-YM-09151-2",79.55%
same,Activity,"Serotonin, 5HT1A (h)",Yes (Significant binding affinity of l-THBr was defined as greater than 50% inhibition of ligand binding)
same,Average inhibition percentage,"Serotonin, 5HT1A (h); radioligand [3H]-8-OH-DPAT",78.31%
same,Average inhibition percentage,[6],21.26%
